The values below are quoted from earlier work in patent publication US20130252843A1, “METHOD OF MAKING AND USING FLUORESCENT-TAGGED NANOPARTICLES AND MICROARRAYS” (THE STATE OF OREGON ACTING BY AND THROUGH THE STATE BOARD …, priority 2010, published 2013).

Read-outs that look alike come from different tables or passages of the source.

For data set [1], the target named is CVN-Q, Cyanovirin-N Q^50C (Q50C) mutant (Nostoc ellipsosporum, UniProt P81180, Q50C). The conditions noted are these: cited from earlier work.
Data set [2] addresses CVN-M, Cyanovirin-N Mut^DB (CV-N^MutDB) mutant (Nostoc ellipsosporum, UniProt P81180). The conditions noted are these: reported association constants, cited from earlier work.
Another data set has as its target Con A, Concanavalin A (Canavalia ensiformis, UniProt P02866). The conditions noted are these: reported solution association constants, cited from earlier work.
For data set [3], the target named is CVN (Cyanovirin-N mutants). The conditions noted are these: cited from earlier work.
A further data set deals with T1, PNA, Peanut Agglutinin (Arachis hypogaea, UniProt P02872).
T1 construct: purchased Sigma-Aldrich
The conditions noted are these: cited from earlier work.

For data set [4], the target named is BS-I, Bandeiraea simplicifolia lectin. The conditions noted are these: cited from earlier work.
Data set [5] addresses DBA, Dolichos Biflorus Agglutinin. The conditions noted are these: cited from earlier work.
Data set [6] concerns the target RCA, Ricinus Communis Agglutinin I. The conditions noted are these: cited from earlier work.

As for `OC[C@H]1O[C@H](O[C@@H]2[C@@H](O[C@@H]3C(O)O[C@H](CO)[C@@H](O)[C@@H]3O)O[C@H](CO)[C@@H](O)[C@@H]2O)[C@@H](O)[C@@H](O)[C@@H]1O` (stereo partly drawn) [2α,2α-Man3, α-1,2-α-1,2-mannotriose], the Ka is 2.94 × 10^5 (Domain A); M^−1 in data set [1] (Domain A); 2.33 × 10^4 (Domain B) M^−1 in data set [1] (Domain B); 294000 M⁻¹ in data set [2]; 294000 M⁻¹ in data set [2] (listed as 2α, 2α-Man3); 379000 M⁻¹ on Con A, Concanavalin A; 379000 M⁻¹ on Con A, Concanavalin A (listed as 2α, 2α-Man3). Also, the Ka is 10^5-10^6 M^−1 on Con A, Concanavalin A (listed as Man3) and 10^5-10^6 M^−1 in data set [3].

Take `CC(=O)N[C@H]1C(O)O[C@H](CO)[C@H](O)[C@@H]1O` (stereo partly drawn) [GalNAc, N-acetylgalactosamine]: the Ka was 2430 M⁻¹ on PNA, Peanut Agglutinin; 187000 M⁻¹ in data set [4]; ~10^3 M^−1 in data set [5]; 48400 M⁻¹ in data set [6].
